Assay results as given in patent publication US8674111B2, “Oxazole and thiazole derivatives as ALX receptor agonists” (Actelion Pharmaceuticals Ltd., priority 2009, dated 2014).

Target: T1, recombinant human ALX receptor (Homo sapiens, UniProt P25090)
T1 construct: expressed in transfected cells; host or cells: HEK293 (HEK293-hALXR-Gα16)
T1 sequence (P25090 1-351): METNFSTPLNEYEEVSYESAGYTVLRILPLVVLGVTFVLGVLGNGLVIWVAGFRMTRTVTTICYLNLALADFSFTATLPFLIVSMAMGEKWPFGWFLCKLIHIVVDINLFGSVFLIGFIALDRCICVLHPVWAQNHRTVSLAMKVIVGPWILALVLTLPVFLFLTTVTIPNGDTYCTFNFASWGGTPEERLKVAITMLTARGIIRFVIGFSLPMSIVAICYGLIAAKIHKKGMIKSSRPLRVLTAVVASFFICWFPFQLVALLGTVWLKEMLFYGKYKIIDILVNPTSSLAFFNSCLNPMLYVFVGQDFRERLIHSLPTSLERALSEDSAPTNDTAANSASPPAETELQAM
Assay: Intracellular calcium measurements (FLIPR), ALX receptor agonistic activity
Format: cell-based
Details: HEK293-hALXR-Gα16 cells; Fluo-4 calcium fluorescence; normalized to WKYMVm 10 nM
Procedure: The ALX receptor agonistic activity of the compounds of formula (I) is determined in accordance with the following experimental method.
Intracellular Calcium Measurements:
Cells expressing recombinant human ALX receptor and the G-protein Gα16 (HEK293-hALXR-Gα16) were grown to 80% confluency in Growing Medium (GM). Cells were detached from culture dishes with a cell dissociation buffer (Invitrogen, 13151-014), and collected by centrifugation at 1,000 rpm at rt for 5 min in Assay Buffer (AB) (equal parts of Hank's BSS (Gibco, 14065-049) and DMEM without Phenol Red (Gibco, 11880-028)). After 60 min incubation at 37° C. under 5% CO2 in AB supplemented with 1 μM Fluo-4 (AM) (Invitrogen, F14202) and 20 mM HEPES (Gibco, 15630-056), the cells were washed and resuspended in AB. They were then seeded onto 384-well FLIPR assay plates (Greiner, 781091) at 50,000 cells in 70 μl per well and sedimented by centrifugation at 1,000 rpm for 1 min. Stock solutions of test compounds were made up at a concentration of 10 mM in DMSO, and serially diluted in AB to concentrations required for activation dose response curves. WKYMVm (Phoenix Peptides) was used as a reference agonist. A FLIPR Tetra instrument (Molecular Devices) was operated according to the manufacturer's standard instructions, adding 4 μl of test compound dissolved at 10 mM in DMSO and diluted prior to the experiment in assay buffer to obtain the desired final concentration. Changes in fluorescence were monitored before and after the addition of test compounds at lex=488 nm and lem=540 nm. Emission peak values above base level after compounds addition were exported after base line subtraction. Values were normalized to high-level control (WKYMVm compound, 10 nM final concentration) after subtraction of the base line value (AB addition).

| EC50 | Structure (SMILES) |
| --- | --- |
| 12 nM | CC(=O)c1ccn(Cc2nc(NC(=O)OCc3ccc(C(F)(F)F)cc3)co2)n1 [Example 13, [2-(3-Acetyl-pyrazol-1-ylmethyl)-oxazol-4-yl]-carbamic acid 4-trifluoromethyl-benzyl ester] |
| 1 nM | COc1cccc(COC(=O)Nc2coc(Cn3ccc(C(C)=O)n3)n2)c1 [Example 12, [2-(3-Acetyl-pyrazol-1-ylmethyl)-oxazol-4-yl]-carbamic acid 3-methoxy-benzyl ester] |
| 3640 nM | CC(=O)c1ccc(Cc2nc(NC(=O)c3nc(C)oc3-c3cccc(Cl)c3)cs2)s1 [Example 19, 5-(3-Chloro-phenyl)-2-methyl-oxazole-4-carboxylic acid [2-(5-acetyl-thiophen-2-ylmethyl)-thiazol-4-yl]-amide] |
| 13 nM | CC(F)(F)CCCCc1nc(NC(=O)OCc2ccccc2Cl)co1 [Example 4, [2-(5,5-Difluoro-hexyl)-oxazol-4-yl]-carbamic acid 2-chloro-benzyl ester] |
| 6560 nM | CC(=O)c1ccn(Cc2nc(NC(=O)c3nc(C4CC4)sc3-c3ccccc3)co2)n1 [Example 16, 2-Cyclopropyl-5-phenyl-thiazole-4-carboxylic acid [2-(3-acetyl-pyrazol-1-ylmethyl)-oxazol-4-yl]-amide] |
| 72 nM | O=C(Nc1coc(Cn2cc(Br)cn2)n1)OCc1ccccc1Cl [Example 10, [2-(4-Bromo-pyrazol-1-ylmethyl)-oxazol-4-yl]-carbamic acid 2-chloro-benzyl ester] |
| 0.3 nM | CC(=O)CCCCc1nc(NC(=O)OCc2ccccc2Cl)co1 [Example 1, [2-(5-Oxo-hexyl)-oxazol-4-yl]-carbamic acid 2-chloro-benzyl ester] |
| 784 nM | CC(=O)CCCCc1nc(NC(=O)c2ncsc2-c2cccc(F)c2)co1 [Example 7, 5-(3-Fluoro-phenyl)-thiazole-4-carboxylic acid [2-(5-oxo-hexyl)-oxazol-4-yl]-amide] |
| 9.8 nM | CC(=O)CCCCc1nc(NC(=O)c2nc(C)oc2-c2cccc(C)c2)co1 [Example 6, 2-Methyl-5-m-tolyl-oxazole-4-carboxylic acid [2-(5-oxo-hexyl)-oxazol-4-yl]-amide] |
| 2.2 nM | CC(=O)c1ccc(Cc2nc(NC(=O)OCc3ccccc3Cl)co2)s1 [Example 14, [2-(5-Acetyl-thiophen-2-ylmethyl)-oxazol-4-yl]-carbamic acid 2-chloro-benzyl ester] |
| 48 nM | CC(=O)c1cccc(Cc2nc(NC(=O)OCc3cccc(OC(F)(F)F)c3)co2)c1 [Example 15, [2-(3-Acetyl-benzyl)-oxazol-4-yl]-carbamic acid 3-trifluoromethoxy-benzyl ester] |
| 0.5 nM | CC(=O)c1ccn(Cc2nc(NC(=O)OCc3ccc(F)cc3Cl)co2)n1 [Example 11, [2-(3-Acetyl-pyrazol-1-ylmethyl)-oxazol-4-yl]-carbamic acid 2-chloro-4-fluoro-benzyl ester] |
| 0.7 nM | CC(=O)c1ccn(Cc2nc(NC(=O)OCc3ccccc3Cl)co2)n1 [Example 3, [2-(3-Acetyl-pyrazol-1-ylmethyl)-oxazol-4-yl]-carbamic acid 2-chloro-benzyl ester] |
| 62 nM | CC(=O)c1ccc(Cc2nc(NC(=O)c3ncoc3-c3ccccc3)cs2)o1 [Example 20, 5-Phenyl-oxazole-4-carboxylic acid [2-(5-acetyl-furan-2-ylmethyl)-thiazol-4-yl]-amide] |
| 216 nM | CC(=O)c1ccc(Cc2nc(NC(=O)c3nc(C)oc3-c3cccc(C)c3)cs2)o1 [Example 21, 2-Methyl-5-m-tolyl-oxazole-4-carboxylic acid [2-(5-acetyl-furan-2-ylmethyl)-thiazol-4-yl]-amide] |
| 86 nM | CC(=O)CCCCc1nc(NC(=O)c2ncoc2-c2ccc(F)cc2)co1 [Example 8, 5-(4-Fluoro-phenyl)-oxazole-4-carboxylic acid [2-(5-oxo-hexyl)-oxazol-4-yl]-amide] |
| 18 nM | CC(=O)CCCCc1nc(NC(=O)c2ncoc2-c2ccccc2)co1 [Example 2, 5-Phenyl-oxazole-4-carboxylic acid [2-(5-oxo-hexyl)-oxazol-4-yl]-amide] |
| 1570 nM | CC(=O)c1ccc(Cc2nc(NC(=O)c3ncoc3-c3ccccc3)cs2)s1 [Example 18, 5-Phenyl-oxazole-4-carboxylic acid [2-(5-acetyl-thiophen-2-ylmethyl)-thiazol-4-yl]-amide] |
| 3.2 nM | CCc1nc(C(=O)Nc2coc(CCCCC(C)=O)n2)c(-c2ccccc2)o1 [Example 9, 2-Ethyl-5-phenyl-oxazole-4-carboxylic acid [2-(5-oxo-hexyl)-oxazol-4-yl]-amide] |
| 1310 nM | CC(=O)c1cccc(Cc2nc(NC(=O)/C=C/c3ccc(C(F)(F)F)cc3)co2)c1 [Example 17, (E)-N-[2-(3-Acetyl-benzyl)-oxazol-4-yl]-3-(4-trifluoromethyl-phenyl)-acrylamide] |
| 194 nM | Cc1cccc(-c2oc(C)nc2C(=O)Nc2coc(CCCCC(C)(F)F)n2)c1 [Example 5, 2-Methyl-5-m-tolyl-oxazole-4-carboxylic acid [2-(5,5-difluoro-hexyl)-oxazol-4-yl]-amide] |
